Experimental data: patent US11339193B2, “CDP protein secretion inhibitors” (KEZAR LIFE SCIENCES, priority 2018, dated 2022)
Where two headings read alike, the source gives them in different places. Numbered stars: 1 amine (or outer) side, 2 acyl side, 3 side chain; on linkers, the order of the positions; unused ones are H or OH. Square brackets hold non-standard residues; d marks the D form. Peptide text beside a SMILES is read from it. NMeAla(5-Cl-benzothien-3-yl) = CN[C@@H](Cc1csc2ccc(Cl)cc12)C(=O)O; X13 = CN([C@@H](Cc1cn(Cc2ccc(Br)cc2)c2ccc(F)cc12)C(=O)[*:2])[*:1]; Butanoyl(2R-oxy,4-CN) = N#CCC[C@@H](O)C(=O)O; X23 = CN([C@@H](CC1=CCCCC1)C(=O)[*:2])[*:1]; X21 = CN([C@@H](CC1=CCCC1)C(=O)[*:2])[*:1]; Abu(4,4,4-F3) = N[C@@H](CC(F)(F)F)C(=O)O; NMeL = CN[C@@H](CC(C)C)C(=O)O; NMeA = CN[C@@H](C)C(=O)O

Key:
Format in all cases: cell-based
[1] = test system: VCAMss+10aa/Gaussia Luciferase; assay: VCAM-ss-Gluc assay (constitutively active or Dox induced); settings: Flp-In 293 T-REx cells, 24 hours
Method: Assays Constitutively Active VCAM-ss-Gluc Assay
(§1) Transfected cells were selected for resistance to the selectable markers Hygromycin and Blasticidin to create a stable cell line that constitutively expressed the VCAMss+ 10aa/Gaussia Luciferase fusion protein. The day before assay, cells were trypsinized and plated in 384-well tissue culture plates. The next day, culture media was removed from the wells and replaced with fresh media. Compound dilutions in DMSO/media were added to the wells and incubated at 37° C., 5% CO2.
Dox Induced VCAM-ss-Gluc Assay
(§2) Transfected cells were selected for resistance to the selectable markers Hygromycin and Blasticidin to create a stable cell line that contained the VCAMss+10aa/Gaussia Luciferase cDNA insert whose expression was regulated under the T-REx™ system. The day before assay, cells were trypsinized and plated in 384-well tissue culture plates. The next day, compound dilutions in DMSO/media containing doxycycline were added to the wells and incubated at 37° C., 5% CO2.

[2] = test system: PD1-ss+10aa/Gaussia Luciferase; assay: Dox induced PD1-ss-Gluc assay; settings: read-out: PD1ss Gluc IC50
Summary of the method: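 Stable Flp-In 293 T-REx line expressing doxycycline-inducible Gaussia luciferase fused to the PD1 signal sequence plus 10 amino acids. Cells plated the day before, then exposed to compound dilutions in DMSO/media containing doxycycline at 37 °C, 5% CO2.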

[3] = test system: TNFα-FL/Gaussia Luciferase; assay: Dox induced TNFα-FL-Gluc assay; settings: read-out: TNFa FL Gluc IC50
Summary of the method: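 Stable Flp-In 293 T-REx line expressing full-length TNFα (aa 1-233) fused at its C-terminus to Gaussia luciferase under doxycycline-inducible control. Cells plated the day before, then given compound dilutions in DMSO/media containing doxycycline and incubated at 37 °C, 5% CO2.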

[4] = test system: NCI-H929 multiple myeloma cell line; assay: H929 assay (cell viability, Celltiter-Glo); settings: Homo sapiens, NCI-H929, read-out: H929 EC50
Summary of the method: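 Cells plated in RPMI 1640 with 10% FBS and 2 mM glutamine, treated with compound dilutions in DMSO/media. Incubation 48 h at 37° C, 5% CO2. Viability from luciferase luminescence signal.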

[5] = test system: Prl-ss+10aa/Gaussia Luciferase; assay: Prl-ss-Gluc assay (constitutively active or 24 hr Dox inducible); settings: read-out: Prl IC50
Source text: Constitutively Active Prl-ss-Gluc Assay
as §1, with “Flp-In 293 T-REx™ cells were transfected with pcDNA™5/FRT plasmid inserted with cDNA encoding Gaussia Luciferase fused to the 3′ end of cDNA encoding Prl signal sequence plus 10 amino acids (N-[…]-C) (SEQ ID NO:4). Transfected” for “Transfected”, “Prlss+10aa/Gaussia” for “VCAMss+ 10aa/Gaussia”
24 hr Dox Inducible Prl-ss-Gluc Assay
as §2, with “Flp-In 293 T-REx™ cells were transfected with pcDNA™5/FRT/TO plasmid inserted with cDNA encoding Gaussia Luciferase fused to the 3′ end of cDNA encoding Prl signal sequence plus 10 amino acids (N-[…]-C) (SEQ ID NO:5). Transfected” for “Transfected”, “Prl-ss+10aa/Gaussia” for “VCAMss+10aa/Gaussia”

HER3ss-Gluc = assay: HER3ss assay; settings: read-out: HER3 ss IC50
Method: The mature domain of secreted luciferase from Gaussia princeps (GLuc) was cloned into pcDNA5/FRT/TO. The signal sequence plus four amino acids of the mature domain from HER3 ([…]) (SEQ ID NO:8) were cloned upstream of GLuc mature domain and used in transient transfection experiment. HEK-293T T-rex cells were cultured in Dulbecco's modified Eagle's medium with 10% FBS at 5% CO2. Cells were plated 1×10e6 cells per well in a 6-well plate and incubated for 6 h. Cells were transiently transfected with HER3ss-Gluc using Lipofectamine 2000 (Invitrogen). After overnight incubation, transfected cells were replated in a clear-bottomed, black 96-well plate at a density of 20,000 cells per well. Six hours after plating, the cells were treated with doxycycline (1 μg/ml) and increasing concentrations of the indicated compounds for 24 h. Secreted luciferase in the conditioned media was quantified by luminescence using the BioLux Gaussia Luciferase Assay Kit (New England Biolabs, Ipswich, Mass., USA) and a SpectraMax M5 plate reader (Molecular Devices).

[6] = test system: U266B1 multiple myeloma cell line; assay: U266 assay (cell viability, Celltiter-Glo); settings: Homo sapiens, U-266
Method: Cells were plated in 384-well tissue culture plates and treated with compound dilutions in DMSO/media. Plates were incubated at 37° C., 5% CO2 for 48 hours. After 48 hours, Celltiter-Glo@ (Promega) was added to each well and luciferase signal was quantified using Tecan Infinite M1000 Pro for cell viability determination.

[7] = Flp-In 293 T-REx cells, doxycycline, 24 hours
[8] = Flp-In 293 T-REx cells, 24 hours
[9] = HEK-293T T-rex cells, transient transfection, doxycycline, 24 h

| SMILES | IC50 [1] [µM] | IC50 [2, 7] [µM] | IC50 [3, 7] [µM] | EC50 ([4]; 48 hours, cell viability) [µM] | IC50 [5, 8] [µM] | IC50 (HER3ss-Gluc; [9]) [µM] | EC50 ([6]; I.A.) [µM] | IC50 ([2]; I.A.) [µM] | IC50 ([3]; I.A.) [µM] | IC50 (HER3ss-Gluc; I.A.) [µM] | EC50 ([6]; 48 hours, cell viability) [µM] | EC50 ([4]; I.A.) [µM] | IC50 ([5]; I.A.) [µM] |
| --- | --- | --- | --- | --- | --- | --- | --- | --- | --- | --- | --- | --- | --- |
| CC(C)C[C@@H]1NC(=O)[C@H](Cc2cn(Cc3ccccc3)nn2)N(C)C(=O)[C@H](CC(C)C)NC(=O)[C@H](CC(C)C)N(C)C(=O)[C@H](CC(C)C)NC(=O)[C@@H](CCC#N)OC(=O)[C@H](C)N(C)C1=O [C-73] | 3.15 | – | – | – | – | – | – | – | – | – | – | – | – |
| CC(C)C[C@@H]1NC(=O)[C@H](Cc2cn(Cc3ccc(Br)cc3)c3ccc(F)cc23)N(C)C(=O)[C@H](CC(F)(F)F)NC(=O)[C@H](CC(C)C)N(C)C(=O)[C@H](CC(F)(F)F)NC(=O)[C@@H](CCC#N)OC(=O)[C@H](C)N(C)C1=O [C-82] (cyclo(L[NMeA][Butanoyl(2R-oxy,4-CN)][Abu(4,4,4-F3)][NMeL][Abu(4,4,4-F3)][X13])) | – | 0.042 | 0.104 | 0.649 | 0.506 | 0.098 | > 25 | – | – | – | – | – | – |
| CC(C)C[C@@H]1NC(=O)[C@H](Cc2csc3ccc(Cl)cc23)N(C)C(=O)[C@H](CC(C)C)NC(=O)[C@H](CC2=CCCCC2)N(C)C(=O)[C@H](CC(F)(F)F)NC(=O)[C@@H](CCC#N)OC(=O)[C@H](C)N(C)C1=O [C-80] (cyclo(L[NMeA][Butanoyl(2R-oxy,4-CN)][Abu(4,4,4-F3)][X23]L[NMeAla(5-Cl-benzothien-3-yl)])) | – | – | – | 3.44 | 23.7 | – | – | > 25 | > 25 | > 25 | 5.68 | – | – |
| CC(C)C[C@@H]1NC(=O)[C@H](Cc2csc3ccc(Cl)cc23)N(C)C(=O)[C@H](CC(C)C)NC(=O)[C@H](CC2=CCCC2)N(C)C(=O)[C@H](CC(F)(F)F)NC(=O)[C@@H](CCC#N)OC(=O)[C@H](C)N(C)C1=O [C-81] (cyclo(L[NMeA][Butanoyl(2R-oxy,4-CN)][Abu(4,4,4-F3)][X21]L[NMeAla(5-Cl-benzothien-3-yl)])) | – | 0.934 | – | – | – | 0.088 | > 25 | – | > 25 | – | – | > 25 | > 25 |
| CC(C)C[C@@H]1NC(=O)[C@H](Cc2csc3ccc(Cl)cc23)N(C)C(=O)[C@H](CC(F)(F)F)NC(=O)[C@H](CC(C)C)N(C)C(=O)[C@H](CC(F)(F)F)NC(=O)[C@@H](CCC#N)OC(=O)[C@H](C)N(C)C1=O [C-90] (cyclo(L[NMeA][Butanoyl(2R-oxy,4-CN)][Abu(4,4,4-F3)][NMeL][Abu(4,4,4-F3)][NMeAla(5-Cl-benzothien-3-yl)])) | – | 0.52 | 2.88 | – | – | 0.038 | > 25 | – | – | – | – | > 25 | > 25 |
